Reference: PMC8510812, “Studies on the Incompatibility between Bulbus fritillariae and Radix aconiti praeparata Based on the P-gp” (Evidence-based Complementary and Alternative Medicine : eCAM, 2021)
Read-outs that look alike come from different tables or passages of the source.

What was measured:
P-gp [1] = type: in vivo, rat; conditions: in the presence of verapamil, n = 6, Figure 10
Protocol: (§1) Rats were anaesthetized by an intraperitoneal injection of urethane and then placed on a heated pad. The small intestine was exposed by surgery. 10 cm of the ileum segment was ligated and cannulated with glass tubing for perfusion. Caroline et al. reported that the level of P-gp expression in rat ileum was the highest. In order to better reflect the characteristics of P-gp, we selected the ileum segment. The cannulated segment was rinsed with saline (37°C), and attached to the perfusion assembly consisted of a syringe pump and a 50 ml syringe. The selected ileum was placed as “U” shape and covered with the gauze wet by saline. The perfusate was collected every 10 min at a flow rate of 0.2 ml/min for 90 min. The perfused intestine segment was removed and opened along the mesentery to measure the area. Samples were frozen immediately and stored at -20°C until analysis. Digoxin, an exclusive substrate of P-gp, was chosen as the FDA guidelines.
The concentrations of drugs in SPIP experiment were determined by HPLC. A MS-C18 column (5 μm, 4.6 mm × 150 mm, Agilent, USA) with an analytical TC-C18 guard column (5 μm, 4.6 mm × 12.5 mm, Agilent, USA) was maintained at 30°C. […] Digoxin was detected by absorbance at 220 nm and benzoylaconine, benzoylmesaconine, and benzoylhypacoitine at 235 nm.
P eff was calculated by the following equation:(1) Peff=−QinlnCoutQout/CinQin/2πrL. […]

ileum = test: Rat SPIP, Peff of monoester alkaloids in Radix aconiti praeparata extract with or without Bulbus fritillariae; type: in vivo; conditions: n = 6, Figure 3
Protocol: as §1
The concentrations of drugs in SPIP experiment were determined by HPLC. A MS-C18 column (5 μm, 4.6 mm × 150 mm, Agilent, USA) with an analytical TC-C18 guard column (5 μm, 4.6 mm × 12.5 mm, Agilent, USA) was maintained at 30°C. The analytical mobile phase about digoxin consisted of water and acetonitrile in a 75 : 25 (v/v) ratio. Benzoylaconine, benzoylmesaconine, and benzoylhypacoitine consisted of 0.05% acetic acid and methanol in a gradient from 85 : 15 to 55 : 45 (v/v) ratio. The flow rate was 1 mL/min. The injection volume was 10 µL. Digoxin was detected by absorbance at 220 nm and benzoylaconine, benzoylmesaconine, and benzoylhypacoitine at 235 nm.
P eff was calculated by the following equation:(1) Peff=−QinlnCoutQout/CinQin/2πrL. Here, Qin and Qout were the flow rate at inlet and outlet, respectively. Cin and Cout were the concentration at inlet and outlet, respectively. 2πrL was the mass transfer surface area within the intestinal segment, which was assumed to be the area of the cylinder with the radius (r) and length (L).

P-gp [2] = target: T1, P-gp (Homo sapiens, UniProt P08183); type: cell-based; conditions: MDR1-MDCK cells, n = 3
T1 construct: host or cells: MDR1-MDCK cells
T1 sequence (P08183 whole entry): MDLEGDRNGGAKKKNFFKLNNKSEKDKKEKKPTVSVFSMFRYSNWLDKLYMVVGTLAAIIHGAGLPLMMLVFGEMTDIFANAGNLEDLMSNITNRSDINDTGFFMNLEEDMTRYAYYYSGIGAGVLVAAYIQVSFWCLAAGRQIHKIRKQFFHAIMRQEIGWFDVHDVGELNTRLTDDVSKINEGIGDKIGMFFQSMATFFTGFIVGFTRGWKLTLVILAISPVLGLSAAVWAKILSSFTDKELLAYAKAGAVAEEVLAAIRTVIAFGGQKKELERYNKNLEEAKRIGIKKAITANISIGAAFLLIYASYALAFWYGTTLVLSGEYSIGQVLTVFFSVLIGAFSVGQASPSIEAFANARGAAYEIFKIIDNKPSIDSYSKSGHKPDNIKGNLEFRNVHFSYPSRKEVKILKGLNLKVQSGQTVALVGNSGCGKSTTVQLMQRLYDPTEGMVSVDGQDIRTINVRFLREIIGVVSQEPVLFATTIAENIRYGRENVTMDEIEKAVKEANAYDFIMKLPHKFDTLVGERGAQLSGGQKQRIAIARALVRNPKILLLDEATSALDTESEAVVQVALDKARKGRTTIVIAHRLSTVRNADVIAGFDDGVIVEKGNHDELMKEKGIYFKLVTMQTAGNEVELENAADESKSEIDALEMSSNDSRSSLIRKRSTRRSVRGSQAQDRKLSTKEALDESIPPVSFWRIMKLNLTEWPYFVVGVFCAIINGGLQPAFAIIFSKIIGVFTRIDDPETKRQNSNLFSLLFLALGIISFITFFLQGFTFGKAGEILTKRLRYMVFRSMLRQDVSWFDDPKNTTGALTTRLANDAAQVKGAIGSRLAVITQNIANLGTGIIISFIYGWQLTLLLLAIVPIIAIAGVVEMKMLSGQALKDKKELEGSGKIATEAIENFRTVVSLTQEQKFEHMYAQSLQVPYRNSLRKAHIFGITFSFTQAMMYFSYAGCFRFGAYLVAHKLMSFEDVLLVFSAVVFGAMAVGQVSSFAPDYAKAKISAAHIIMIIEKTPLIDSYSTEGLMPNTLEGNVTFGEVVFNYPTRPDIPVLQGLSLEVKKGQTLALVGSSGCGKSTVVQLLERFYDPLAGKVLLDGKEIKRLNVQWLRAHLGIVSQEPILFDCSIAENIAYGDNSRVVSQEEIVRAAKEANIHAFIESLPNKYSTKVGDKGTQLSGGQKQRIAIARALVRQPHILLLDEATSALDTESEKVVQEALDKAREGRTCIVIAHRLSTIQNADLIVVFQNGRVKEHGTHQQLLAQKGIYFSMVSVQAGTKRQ
Protocol: MDR1-MDCK cells, obtained from the College of Pharmaceutical Sciences in Zhejiang University (China), were cultured in DMEM containing 10% FBS, 100 µg/mL-100 U/mL penicillin-streptomycin, and 1% NEAA at 37°C in an atmosphere of 5% CO2 and 95% relative humidity. Cells were passaged at 80%–90% conﬂuence. P-gp inhibitors were screened by MDR1-MDCK cell transport study using the calcein-AM kit. Briefly, the cells were seeded in a 96-well black opaque plate and cultured for 48 h. Then, the cells were washed twice with PBS. 100 µL drug and 50 µL culture medium was added and preincubated at 37°C for 10 min. 50 µL 1 µM calcein-AM was added and incubated at 37°C for 1 h. Cold PBS was used to terminate the reaction. 100 µL 0.1% Triton-100 was added for cell permeability.
RFR was calculated by (4) RFR=RFU TS/RFU CS×100%. Here, RFU TS was the RFU of the test sample and RFU CS was the RFU of the control sample.

| SMILES | Peff of monoester alkaloid in Radix aconiti praeparata extract versus that supplemented with verapamil (P-gp [1]) | Peff of monoester alkaloid in Radix aconiti praeparata extract versus Radix aconiti praeparata + Bulbus fritillariae cirrhosae extract (ileum) | Peff of monoester alkaloid in Radix aconiti praeparata extract versus Radix aconiti praeparata + Bulbus fritillariae thunbergii extract (ileum) | RFR of calcein versus control group (P-gp [2]; high-dose group) | RFR of calcein versus control group (P-gp [2]; low-dose group) |
| --- | --- | --- | --- | --- | --- |
| CCN1C[C@]2(COC)[C@H](O)C[C@H](OC)[C@@]34[C@@H]5C[C@@]6(O)[C@H](OC(=O)c7ccccc7)[C@@H]5[C@@](O)([C@@H]([C@H](OC)[C@H]23)[C@@H]14)[C@@H](O)[C@@H]6OC [Benzoylaconine] | No significant differences | No significant differences | No significant differences |  |  |
| COC[C@@]12CC[C@H](OC)[C@]34C([C@H]([C@H](OC)[C@H]13)[C@]1(O)[C@H]3[C@@H](OC(=O)c5ccccc5)[C@](O)(C[C@H]34)[C@@H](OC)[C@@H]1O)N(C)C2 [Benzoylhypacoitine] | No significant differences | No significant differences | No significant differences |  |  |
| COC[C@]12CN(C)C3[C@@H]4[C@H](OC)[C@H]1[C@@]3([C@@H](OC)C[C@H]2O)[C@@H]1C[C@@]2(O)[C@H](OC(=O)c3ccccc3)[C@@H]1[C@]4(O)[C@@H](O)[C@@H]2OC [Benzoylmesaconine] |  | significant differences |  |  |  |
| C[C@H]1CC[C@@H]2N(C1)C[C@H]1[C@@H]3C[C@H]4[C@@H](C[C@H](O)[C@H]5C[C@@H](O)CC[C@@]54C)[C@@H]3CC[C@@H]1[C@]2(C)O [Peimine] |  |  |  | highly significant differences | no significant differences |
| C[C@H]1CCC2N(C1)C[C@H]1C3CC4[C@@H](CC(=O)C5C[C@@H](O)CC[C@@]54C)C3CCC1[C@]2(C)O (stereo partly shown) [Peiminine] |  |  |  | no significant differences | no significant differences |
| CC1=C2C[C@H]3[C@@H](CC(=O)[C@H]4C[C@@H](O)CC[C@@]43C)[C@@H]2CC[C@]12O[C@@H]1C[C@H](C)CN[C@H]1[C@H]2C [Peimisine] |  |  |  | highly significant differences | highly significant differences |
